Where two headings read alike, the source gives them in different places.
Tests used:
COLO 829 = test: Cell viability assay, melanoma cell line COLO 829; format: cell-based
Method: (§1) 4.4.4 Compound Plate (10×) Preparation and Compound Treatment • 10× concentrate compound plate preparation: Add 198 μL of assay medium into each well of the V-bottom plate; then transfer 2 μL of the stock compound solution of each concentration from the stock plate. Add 2 μL of DMSO into the Blank and Control wells. Pipette up and down to mix well. This V-plate is designated as the 10× concentrate compound plate. • For day 0 plate, add 15 μL of the DMSO-medium into the Control wells. The final DMSO concentration was 0.1%. Then directly proceed to cell viability assay. • For assay plate, add 15 μL of the compound-medium of each well from the 10× concentrate compound plate into the cells in 96-well assay plate according to the plate map. Add 15 μL of the DMSO-medium into the Blank and Control wells. The final DMSO concentration was 0.1%. • Return the assay plate into incubator and incubate for 6 days.
(§2) The procedures were performed according to the Promega CellTiter-Glo Luminescent Cell Viability Assay Kit manual (Promega-G7573). • The CellTiter-Glo buffer was thawed and equilibrated to room temperature prior to use. • CellTiter-Glo Substrate was equilibrated to room temperature prior to use. • The entire liquid volume of CellTiter-Glo Buffer was transferred into the amber bottle containing CellTiter-Glo Substrate to reconstitute the lyophilized enzyme/substrate mixture. […] Plates were covered with aluminum foil to protect from light. • The contents were mixed for 2 minutes on an orbital shaker to induce cell lysis. • The plate was incubated at room temperature for 20 minutes to stabilize luminescent signal. • Record luminescence on the 2104 EnVision plate reader.
(§3) Inhibition rate (IR) of the tested compounds was determined by the following formula: IR (%)=(1−(RLU compound−RLU day0)/(RLU control−RLU day0))*100%. The inhibitions of different dose of compound were calculated in Excel file, and then were used to plot inhibition curves and evaluate related parameters, such as Min (%), Max (%) and GI50. […]

[1] = tested on: 7 CNS metastasis cell lines (MOLT-4-luc, Nalm-6-luc, NCI-H460-luc, ACHN-luc2, PC-9-luc, H1975-luc, KM12-luc); test: Anti-proliferation assay, 7 CNS metastasis cell lines taken together; format: cell-based
Method: (§4) The anti-proliferation effect of 2 compounds (the compound of formula (I) and temozolomide) in 7 CNS metastasis cell lines (MOLT-4-luc, Nalm-6-luc, NCI-H460-luc, ACHN-luc2, PC-9-luc, H1975-luc, and KM12-luc) was evaluated.
The plating of cells and compound treatments are shown below in the plate map (Table 12). One plate was needed for the test of 2 compounds (the compound of formula (I) and temozolomide) in one cell line. The compound of formula (I) was tested from 10 μM, 3-fold serial dilution. Temozolomide was tested from 100 μM, 3-fold serial dilution. […]
as §2, with “reader. […]” for “reader.”

SK-MEL-31 = test: Cell viability assay, melanoma cell line SK-MEL-31; format: cell-based
Method: as §1, §2, §3

Nalm-6-luc = test: CellTiter-Glo anti-proliferation assay, Nalm-6-luc; format: cell-based
Method: as §4
(§5) The plating of cells and compound treatments are shown below in the plate map (Table 12). One plate was needed for the test of 2 compounds (the compound of formula (I) and temozolomide) in one cell line. The compound of formula (I) was tested from 10 μM, 3-fold serial dilution. Temozolomide was tested from 100 μM, 3-fold serial dilution.
(§6) All the cell lines were maintained in culture conditions at 37° C. in an atmosphere with 5% CO2 in air. The tumor cells were routinely subcultured. The cells growing in an exponential growth phase were harvested and counted for plating.
(§7) Cells were counted by haemocytometer with Trypan blue staining. Next, 135 μL of cell suspension were plated into the assay plates according to the plate map and 135 μL of assay medium into the blank wells. The plates were incubated at 37° C., 5% CO2, 95% air and 100% relative humidity overnight.
as §1
(§8) The procedures were performed according to the Promega CellTiter-Glo Luminescent Cell Viability Assay Kit manual (Promega-G7573). • The CellTiter-Glo buffer was thawed and equilibrated to room temperature prior to use. • CellTiter-Glo Substrate was equilibrated to room temperature prior to use. • The entire liquid volume of CellTiter-Glo Buffer was transferred into the amber bottle containing CellTiter-Glo Substrate to reconstitute the lyophilized enzyme/substrate mixture. This forms the CellTiter-Glo Reagent. • The contents were mixed by gently vortexing to obtain a homogeneous solution. • The plate was equilibrated and its contents to room temperature for approximately 30 minutes. 75 μL (equal to the half volume of culture medium present in each well) CellTiter-Glo • Reagent was added in each well. Plates were covered with aluminum foil to protect from light. • The contents were mixed for 2 minutes on an orbital shaker to induce cell lysis. • The plate was incubated at room temperature for 20 minutes to stabilize luminescent signal. • Record luminescence on the 2104 EnVision plate reader.
(§9) Inhibition rate (IR) of the tested compounds was determined by the following formula: IR (%)=(1−(RLU compound−RLU day0)/(RLU control−RLU day0))*100%. The inhibitions of different dose of compound were calculated in Excel file, and then were used to plot inhibition curves and evaluate related parameters, such as Min (%), Max (%) and GI50. The data were interpreted by GraphPad Prism.

VCap prostate cancer = test: Non-castrated VCap prostate cancer model; format: in vivo, male CB17/Scid mice
Method: Compound (I), enzalutamide, and abiraterone were tested in non-castrated VCap prostate cancer model in male CB17/Scid mice.
All treatment groups reduced mean tumor volume.

MOLT-4-luc = test: CellTiter-Glo anti-proliferation assay, MOLT-4-luc; format: cell-based
Method: as §4, §5, §6, §7, §1, §8, §9

SK-MEL-24 = test: Cell viability assay, melanoma cell line SK-MEL-24; format: cell-based
Method: as §1, §2, §3

A375 = test: Cell viability assay, melanoma cell line A375; format: cell-based
Method: as §1, §2, §3

MCF-7 tumors = format: in vivo; conditions: for T/C / TGI / Tumor Size: PG-D49
Method: The in vivo anti-tumor efficacy of the compound of formula (I) either alone or in combination with fulvestrant on MCF-7 breast tumor model on female Balb/c nude mice was evaluated. The protocol was he same as described in Example 1 with the exception that the dosing schedule of fulvestrant was modified.

U-118MG xenograft tumors = test: U-118MG glioma subcutaneous xenograft model; format: in vivo, female CB17 SCID mice; conditions: Group 3: Compound (I) 30 mg/kg PO, QD; PG-D27
[2] = 144 h, 6 days incubation, read-out: Absolute GI50
[3] = inhibition rate, 6 days, Compound (I) from 10 μM, temozolomide from 100 μM, 3-fold, 9 points

SMILES: CC(C)N1CCOc2c(F)cc(-c3nc(Nc4ccc(C5CCN(C)CC5)cn4)ncc3F)cc21 [Compound (I), 5-fluoro-4-(8-fluoro-4-isopropyl-3,4-dihydro-2H-benzo[b][1,4]oxazin-6-yl)-N-(5-(1-methylpiperidin-4-yl)pyridin-2-yl)pyrimidin-2-amine]
- GI50 (COLO 829; Homo sapiens, COLO-829, read-out: Absolute GI50): 875 nM
- Max (%) (COLO 829; inhibition rate): 107.94%
- Min (%) (COLO 829; inhibition rate): −3.11%
- Inhibitory effect in cell viability assay ([1]; current testing concentrations): significant inhibitory effect
- GI50 ([1]; read-out: Absolute GI50 values, range over 7 cell lines): 47 to 2790 nM
- Max (%) (SK-MEL-31; inhibition rate): 125.31%
- Min (%) (SK-MEL-31; inhibition rate): −0.53%
- GI50 (SK-MEL-31; read-out: Absolute GI50): 1230 nM
- GI50 (Nalm-6-luc; [2]): 154 nM
- Max (%) (Nalm-6-luc; [3]): 105.6%
- Min (%) (Nalm-6-luc; [3]): −20.8%
- Tumor volume (mean ± SEM) (VCap prostate cancer; Group 3: Compound (I) 10 mg/kg p.o. QD * 26 days, Day 0): 171.8 ± 6 mm^3
- Tumor volume (mean ± SEM) (VCap prostate cancer; Group 3: Compound (I) 10 mg/kg p.o. QD * 26 days, Day 4): 221.9 ± 15.2 mm^3
- Tumor volume (mean ± SEM) (VCap prostate cancer; Group 3: Compound (I) 10 mg/kg p.o. QD * 26 days, Day 7): 260.9 ± 13.8 mm^3
- Tumor volume (mean ± SEM) (VCap prostate cancer; Group 3: Compound (I) 10 mg/kg p.o. QD * 26 days, Day 11): 310.5 ± 19.9 mm^3
- Tumor volume (mean ± SEM) (VCap prostate cancer; Group 3: Compound (I) 10 mg/kg p.o. QD * 26 days, Day 14): 381.2 ± 15.4 mm^3
- Tumor volume (mean ± SEM) (VCap prostate cancer; Group 3: Compound (I) 10 mg/kg p.o. QD * 26 days, Day 18): 420.6 ± 20.2 mm^3
- Tumor volume (mean ± SEM) (VCap prostate cancer; Group 3: Compound (I) 10 mg/kg p.o. QD * 26 days, Day 21): 514.2 ± 16.5 mm^3
- Tumor volume (mean ± SEM) (VCap prostate cancer; Group 3: Compound (I) 10 mg/kg p.o. QD * 26 days, Day 25): 596.9 ± 22.9 mm^3
- Tumor volume (mean ± SEM) (VCap prostate cancer; Group 4: Compound (I) 30 mg/kg p.o. QD * 26 days, Day 0): 171.7 ± 6.1 mm^3
- Tumor volume (mean ± SEM) (VCap prostate cancer; Group 4: Compound (I) 30 mg/kg p.o. QD * 26 days, Day 4): 218.9 ± 14.4 mm^3
- Tumor volume (mean ± SEM) (VCap prostate cancer; Group 4: Compound (I) 30 mg/kg p.o. QD * 26 days, Day 7): 233.4 ± 16.4 mm^3
- Tumor volume (mean ± SEM) (VCap prostate cancer; Group 4: Compound (I) 30 mg/kg p.o. QD * 26 days, Day 11): 253.7 ± 20.6 mm^3
- Tumor volume (mean ± SEM) (VCap prostate cancer; Group 4: Compound (I) 30 mg/kg p.o. QD * 26 days, Day 14): 279.1 ± 23.6 mm^3
- Tumor volume (mean ± SEM) (VCap prostate cancer; Group 4: Compound (I) 30 mg/kg p.o. QD * 26 days, Day 18): 259.2 ± 23.5 mm^3
- Tumor volume (mean ± SEM) (VCap prostate cancer; Group 4: Compound (I) 30 mg/kg p.o. QD * 26 days, Day 21): 235.9 ± 18.3 mm^3
- Tumor volume (mean ± SEM) (VCap prostate cancer; Group 4: Compound (I) 30 mg/kg p.o. QD * 26 days, Day 25): 232.9 ± 21.3 mm^3
- Antitumor effect (VCap prostate cancer; compound (I) 30 mg/kg PO QD, enzalutamide 20 mg/kg PO QD): greatest inhibition of tumor growth
- GI50 (MOLT-4-luc; [2]): 200 nM
- Max (%) (MOLT-4-luc; [3]): 103.5%
- Min (%) (MOLT-4-luc; [3]): −18.4%
- GI50 (SK-MEL-24; Homo sapiens, SK-MEL-24, read-out: Absolute GI50): 151 nM
- Max (%) (SK-MEL-24; inhibition rate): 113.43%
- Min (%) (SK-MEL-24; inhibition rate): 1.36%
- GI50 (A375; Homo sapiens, A-375, read-out: Absolute GI50): 156 nM
- Max (%) (A375; inhibition rate): 101.21%
- Min (%) (A375; inhibition rate): −0.12%
- T/C (MCF-7 tumors; 10 mg/kg PO QD): 51.74%
- TGI (MCF-7 tumors; 10 mg/kg PO QD): 55.83%
- Tumor Size (MCF-7 tumors; 10 mg/kg PO QD): 611 mm^3
- T/C (MCF-7 tumors; 30 mg/kg PO QD): 14.39%
- TGI (MCF-7 tumors; 30 mg/kg PO QD): 99.02%
- Tumor Size (MCF-7 tumors; 30 mg/kg PO QD): 170 mm^3
- Toxicity (body weight changes) (MCF-7 tumors; MCF-7 tumor-bearing mice, 50 days): did not display toxicity
- TGI (U-118MG xenograft tumors): 96.40%

Source: patent US20230000876A1, “TREATING CANCERS WITH A CYCLIN-DEPENDENT KINASE INHIBITOR” (Nuvation Bio Inc., priority 2021, published 2023)
